For orientation: IC50 means the concentration that gives 50% inhibition. A word on the EC50: it is the concentration giving half of the maximal effect.

The target of assay [1] is T1, androgen receptor (hAR) (Homo sapiens (Human), UniProt P10275). Description: biochemical. Type of assay: binding. As for the experimental part:
In order to examine binding ability of the agonists of the present invention to androgen receptors, the following in-vitro experiment was performed. African green monkey kidney fibroblast-like cell line, COS-7 (ATCC, #CRL-1651) was seeded in a 48-well plate at a density of 2.5×10^4 cells/well, and cultured for 24 hours. Then, a plasmid hAR-mixed medium was added thereto. […] Thereafter, the cells were lysed and the amount of [3H]MIB bound to the intracellular androgen receptors was measured using a radiation dosimeter.

For assay [2], the target named is T1, androgen receptor (hAR). Put plainly: Test of transcriptional activity (hAR / ARE-Luc dual-luciferase assay in CHO cells). Type of assay: cell-based. To be noted: EC50 [nM] (mean ± SE), CHO cells with hAR and ARE-Luc, 24 hours; 10 nM DHT = 100%. In a few lines:
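Compound at 0.1˜10,000 nM applied for 24 h to CHO cells carrying transfected human AR and an ARE-driven luciferase reporter. Cells were grown 24 h before transfection; readout was dual-luciferase luminescence.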

Where [3] appears, read: 1 nM [3H]MIB, hAR-transfected COS-7 cells, 2 hours, read-out: IC50 [nM] (mean ± SE).

Molecules are shown by their SMILES. Read-outs that look alike come from different tables or passages of the source.

T1 sequence (P10275 whole entry): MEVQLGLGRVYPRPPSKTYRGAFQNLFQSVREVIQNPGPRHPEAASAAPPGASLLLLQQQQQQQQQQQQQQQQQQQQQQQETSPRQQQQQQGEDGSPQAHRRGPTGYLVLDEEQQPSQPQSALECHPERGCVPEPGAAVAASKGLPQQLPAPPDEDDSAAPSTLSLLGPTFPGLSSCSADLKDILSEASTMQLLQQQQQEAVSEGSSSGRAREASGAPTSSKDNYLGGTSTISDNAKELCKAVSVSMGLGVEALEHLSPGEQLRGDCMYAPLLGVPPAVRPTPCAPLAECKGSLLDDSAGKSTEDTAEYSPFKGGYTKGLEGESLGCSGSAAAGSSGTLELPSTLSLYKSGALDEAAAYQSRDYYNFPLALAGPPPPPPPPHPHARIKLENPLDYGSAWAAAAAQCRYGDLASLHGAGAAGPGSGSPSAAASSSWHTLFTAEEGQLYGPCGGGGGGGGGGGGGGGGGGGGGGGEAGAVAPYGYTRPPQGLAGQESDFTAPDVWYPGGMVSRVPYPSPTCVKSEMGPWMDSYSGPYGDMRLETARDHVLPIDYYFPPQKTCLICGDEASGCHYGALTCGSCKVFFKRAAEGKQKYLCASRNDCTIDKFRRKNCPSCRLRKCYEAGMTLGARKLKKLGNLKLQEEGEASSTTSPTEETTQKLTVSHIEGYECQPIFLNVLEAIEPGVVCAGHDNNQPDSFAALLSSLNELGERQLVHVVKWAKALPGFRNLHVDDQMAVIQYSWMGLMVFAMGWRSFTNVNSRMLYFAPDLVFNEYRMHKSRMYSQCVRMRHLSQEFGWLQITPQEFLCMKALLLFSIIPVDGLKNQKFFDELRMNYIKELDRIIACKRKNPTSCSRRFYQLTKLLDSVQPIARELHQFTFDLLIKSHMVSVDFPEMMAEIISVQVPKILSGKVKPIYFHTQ

For the compound `CN(C)C(=O)c1ccc(OC[C@@H]2CN(c3ccc(C#N)c(C(F)(F)F)c3)[C@@H](C(F)(F)F)O2)cc1` [Example 34, 4-(((2R,5S)-3-(4-cyano-3-(trifluoromethyl)phenyl)-2-(trifluoromethyl)oxazolidin-5-yl)methoxy)-N,N-dimethylbenzamide], the IC50 against androgen receptor (hAR) [1] was 24.1 nM. On androgen receptor (hAR) [2], the EC50 came out at 111 nM.

As for `N#Cc1ccc(SC[C@@H]2CN(c3ccc(C#N)c(C(F)(F)F)c3)[C@@H](C(F)(F)F)O2)cc1` [Example 29, 4-((2R,5S)-5-(((4-cyanophenyl)thio)methyl)-2-(trifluoromethyl)oxazolidin-3-yl)-2-(trifluoromethyl)benzonitrile], the IC50 at androgen receptor (hAR) [1] (setting [3]) stood at 14.1 nM. This compound returned an EC50 at androgen receptor (hAR) [2] of 7.5 nM.

As for `N#Cc1ccc(COC[C@@H]2CN(c3ccc(C#N)c(C(F)(F)F)c3)[C@@H](C(F)(F)F)O2)cc1` [Example 2, 4-((2R,5S)-5-(((4-cyanobenzyl)oxy)methyl)-2-(trifluoromethyl)oxazolidin-3-yl)-2-(trifluoromethyl)benzonitrile], the IC50 on androgen receptor (hAR) [1] (setting [3]) came out at 23.9 nM. Moreover, it took 133 nM to reach a half-maximal effect on androgen receptor (hAR) [2] (EC50).

With `N#Cc1ccc(N2C[C@@H](COc3ccc([N+](=O)[O-])cc3F)O[C@@H]2C(F)(F)F)cc1C(F)(F)F` [Example 33, 4-((2R,5S)-5-((2-fluoro-4-nitrophenoxy)methyl)-2-(trifluoromethyl)oxazolidin-3-yl)-2-(trifluoromethyl)benzonitrile], the IC50 at androgen receptor (hAR) [1] (setting [3]) was 10.4 nM. Moreover, the concentration for a half-maximal effect (EC50) at androgen receptor (hAR) [2] turned out to be 10.7 nM.

With `N#Cc1ccc(N2C[C@@H](COc3ccc([N+](=O)[O-])cc3)O[C@@H]2C(F)(F)F)cc1C(F)(F)F` [Example 8, 4-((2R,5S)-5-((4-nitrophenoxy)methyl)-2-(trifluoromethyl)oxazolidin-3-yl)-2-(trifluoromethyl)benzonitrile], the IC50 at androgen receptor (hAR) [1] (setting [3]) stood at 13.7 nM. Also, at androgen receptor (hAR) [2], a half-maximal response (EC50) required 20 nM.

On to `N#Cc1ccc(N2C[C@@H](COc3ccc(Cl)cc3)O[C@@H]2C(F)(F)F)cc1C(F)(F)F` [Example 56, 4-((2R,5S)-5-((4-chlorophenoxy)methyl)-2-(trifluoromethyl)oxazolidin-3-yl)-2-(trifluoromethyl)benzonitrile], for which the concentration for half-maximal inhibition (IC50) at androgen receptor (hAR) [1] (setting [3]) was found to be 75.1 nM. This compound came in with an EC50 on androgen receptor (hAR) [2] of 75.1 nM.

As to `COC(=O)c1ccc(OC[C@@H]2CN(c3ccc(C#N)c(C(F)(F)F)c3)[C@@H](C(F)(F)F)O2)cc1` [Example 7, methyl 4-(((2R,5S)-3-(4-cyano-3-(trifluoromethyl)phenyl)-2-(trifluoromethyl)oxazolidin-5-yl)methoxy)benzoate], at androgen receptor (hAR) [1] (setting [3]), the IC50 was found to be 15.7 nM. The compound further came in with an EC50 on androgen receptor (hAR) [2] of 13.1 nM.

The values are drawn from patent US9809583B2 (priority 2014, dated 2017).
